Data reported in patent publication US20160009752A1, “[…]-OXIMINO-AMINOALKYLETHERS AND PROCESS FOR PREPARATION THEREOF, USEFUL AS ANTIDIABETIC AND […] AGENTS” (COUNCIL OF SCIENTIFIC & INDUSTRIAL RESEARCH, priority 2013, published 2016).
Marks after values point to notes of the source that are not given here.

Columns and labels:
[1] = system: sucrose loaded rat; test: Sucrose loaded rat model (SLM), oral tolerance test; format: in vivo; set-up: % Antihyperglycemic activity SLM: concentration or dose not given beside the values; details: for % Antihyperglycemic activity SLM: Table 2, sucrose loaded rat
Source text: On the day of experiment blood glucose of all the overnight fasted animals was checked by Glucostrips (Roche) using Glucometer (ACCU-CHEK II; Roche Diagnostics, USA). […] Animals were divided into groups consisting of five animals in each. […] The test compounds and standard drug was always prepared in the vehicle 1% gum acacia. […] Food (not water) was removed from the cages during the experimental period. […] Comparing the AUC of test sample or drug treated groups compared to control group determined the percent improvement in OGTT by test sample and standard drugs and termed as antihyperglycaemic activity. Statistical analysis between the groups was done by employing Students t test

[2] = system: Triton-induced hyperlipidemic rat model; test: Antidyslipidaemic activity in Triton-induced hyperlipidemic rat model; format: in vivo; details: summary of Tables 1-2
Description: Male charles foster rats weighing around 200 to 225 g were divided into control, dyslipidemic and dyslipidemic plus drug treated groups containing six animals in each group. Dyslipidemia was induced by administration of triton WR-1339 (200 mg/kg intraperitoneally). All animals were maintained on a special pellet diet and water ad libitum. Test compounds and standard drug (Gemfibrozil) were macerated in 0.2% aqueous gum acacia. The fine suspension of test compounds and standard drug were fed orally to the respective groups at the dose of 100 mg/kg simultaneously with triton WR-1339 in drug treated group. The animals of control group received the same amount of gum acacia by similar route of administration. […]
Total plasma cholesterol was estimated using the kit and instructions as provided by the manufacturer Roche Diagnostics. […] The hydrogen peroxide combines with hydroxybenzoic acid (HBA) and 4-aminoantipyrine (4-AAA) in the presence of peroxidase (POD) to form a red chromophore (quinoneimine) which is quantitated at 500-505 nm. […]
Total plasma triglycerides were estimated using the kit and instructions as provided by the manufacture i.e. Roche Diagnostics. […] In the presence of peroxidase, hydrogen peroxide oxidatively couples with 4-aminoantipyrine and 4-chlorophenol to produce red chromophore quinonimine which is quantitated at 500-505 nm. […]

[3] = system: sucrose challenged low dosed STZ-induced diabetic rats; test: Sucrose challenged low dosed streptozotocin-induced diabetic rats (STZ-S); format: in vivo, rat; details: for % Antihyperglycemic activity STZ-S 0-5 hr / % Antihyperglycemic activity STZ-S 0-24 hr: Table 2
Description: Fasting blood glucose level of each animal was measured after 48 hours post STZ injection by Glucostrips (Roche) using Glucometer (ACCU-CHEK II; Roche Diagnostics, USA) and animals showing blood glucose level above 280 mg/dl were considered as diabetic. The diabetic rats with fasting blood glucose values varying between […] were included in this study. Animals were divided into groups consisting of five animals in each. Group one was considered as a control group, where as the other groups were termed as experimental groups. […] The test samples and standard drug (Metformin) was always prepared in the vehicle 1% gum acacia. […] Food (not water) was removed from the cages during the experimental period. […] The percent decline in AUC of the experiment group compared to sham treated control group termed as % antihyperglycaemic activity. Statistical analysis between the groups was done by employing Students t test.

[4] = system: STZ-induced diabetic rats; test: Streptozotocin-induced diabetic rat model (STZ); format: in vivo; details: 100 mg/kg
Description: Male albino rats (Sprague Dawley Strain) of body weight 160±20 g were procured from the colony of CDRI Animal House. 4 to 5 animals were kept in one polypropylene cage and acclimatized for one week in the new environment. The animals were made diabetic by injecting streptozotocin (STZ) intraperitoneally to the overnight starved animals at a dose of 60 mg/kg prepared in 100 mM citrate buffer (pH 4.5). Fasting blood glucose level of each animal was measured after 48 hours post STZ injection by Glucostrips (Roche) using Glucometer (ACCU-CHEK II; Roche Diagnostics, USA) and animals showing blood glucose level above 280 mg/dl were considered as diabetic. The diabetic rats with fasting blood glucose values varying between 280-450 mg/dl were included in this study. Animals were divided into groups consisting of five animals in each. Group one was considered as a control group, where as the other groups were termed as experimental groups. Rats of experimental group were usually given 100 mg/kg body weight of the test samples unless stated otherwise and standard drug i.e. metformin, respectively. The test samples and standard drug i.e. metformin was always prepared in the vehicle 1% gum acacia. 30 min post administration of the test samples/vehicle/standard drug, blood glucose levels of the animals of all the groups were measured at 30, 60, 90, 120, 180, 240, 300 and 1440 min. Food (not water) was removed from the cages during the experimental period. A plot was drawn between time and blood glucose levels on x and y axis, respectively and the area under curve (AUC) between 0 to 300 min were calculated of each group. The percent decline in AUC of the experiment group compared to sham treated control group termed as % antihyperglycaemic activity. Statistical comparison between the groups was done by employing Student's ‘t’ test.

C/C(=N\OCCN1CCCCCC1)C1=CC[C@H]2[C@@H]3CC=C4C[C@@H](O)CC[C@]4(C)[C@H]3CC[C@]12C [Compound 11b, 3β-Hydroxypregna-5,16-dien-20-one-O-(2-azepan-1-yl-ethyl)-oxime]
% Antihyperglycemic activity SLM [1]: 16.5%
melting point: 127 to 130 °C

CCCCO/N=C(/C)C1=CC[C@H]2[C@@H]3CC=C4C[C@@H](O)CC[C@]4(C)[C@H]3CC[C@]12C [Compound 10a, 3β-Hydroxy-pregna-5,16-dien-20-one-O-n-butyl-oxime]
antidyslipidemic / antidiabetic activity, summary in words [2]: mainly antidyslipidemic activity

C/C(=N\OCCN1CCCC1)[C@H]1CC[C@H]2[C@@H]3CC=C4C[C@@H](O)CC[C@]4(C)[C@H]3CC[C@]12C [Compound 14a, 3β-Hydroxy-pregna-5-en-20-one-O-(2-pyrrolidin-1-yl-ethyl)-oxime]
% Antihyperglycemic activity SLM [1]: 42.4%
anti-diabetic activity, in words ([1]; all the models including db/+ mice models): better anti-diabetic activity
melting point: 140 to 142 °C
% Antihyperglycemic activity STZ-S 0-5 hr [3]: 9.96%
% Antihyperglycemic activity STZ-S 0-24 hr [3]: 3.07%

CN(C)C(=N)N=C(N)N [Metformin, reference compound]
Blood glucose level, 0 min post sucrose load [4]: 358.4 ± 14.5 mg/dL
Blood glucose level, 30 min post sucrose load [4]: 450.0 ± 21.8 mg/dL
Blood glucose level, 60 min post sucrose load [4]: 419.0 ± 10.5 mg/dL
Blood glucose level, 90 min post sucrose load [4]: 399.0 ± 7.7 mg/dL
Blood glucose level, 120 min post sucrose load [4]: 351.0 ± 16.0 mg/dL
Blood glucose level, 180 min post sucrose load [4]: 349.6 ± 10.1 mg/dL
Blood glucose level, 240 min post sucrose load [4]: 337.0 ± 7.7 mg/dL
Blood glucose level, 300 min post sucrose load [4]: 299.8 ± 5.0 mg/dL
Blood glucose level, 1440 min post sucrose load [4]: 445.6 ± 13.9 mg/dL
Blood glucose profile, 0 min post glucose load ([1]; 100 mg/kg): 94.8 ± 2.1 mg/dL
Blood glucose profile, 30 min post glucose load ([1]; 100 mg/kg): 111.4 ± 7.8 mg/dL
Blood glucose profile, 60 min post glucose load ([1]; 100 mg/kg): 105.8 ± 2.1 mg/dL
Blood glucose profile, 90 min post glucose load ([1]; 100 mg/kg): 94.0 ± 2.0 mg/dL
Blood glucose profile, 120 min post glucose load ([1]; 100 mg/kg): 84.2 ± 1.3 mg/dL
% Antihyperglycaemic activity (improvement in OGTT post sucrose load) ([1]; 100 mg/kg, AUC 0-120 min vs control, normal rats): 24.4*** %
% Antihyperglycemic activity SLM [1]: 21.1%
% Antihyperglycemic activity 0-300 min ([3]; 100 mg/kg): 23.7%**
% Antihyperglycemic activity 0-1440 min ([3]; 100 mg/kg): 23.1%**
Blood glucose level, 0 min post sucrose load ([3]; 100 mg/kg): 222.2 ± 19.9 mg/dL
Blood glucose level, 30 min post sucrose load ([3]; 100 mg/kg): 457.4 ± 17.2 mg/dL
Blood glucose level, 60 min post sucrose load ([3]; 100 mg/kg): 524.2 ± 18.9 mg/dL
Blood glucose level, 90 min post sucrose load ([3]; 100 mg/kg): 468.2 ± 11.3 mg/dL
Blood glucose level, 120 min post sucrose load ([3]; 100 mg/kg): 416.0 ± 12.2 mg/dL
Blood glucose level, 180 min post sucrose load ([3]; 100 mg/kg): 373.6 ± 11.4 mg/dL
Blood glucose level, 240 min post sucrose load ([3]; 100 mg/kg): 345.0 ± 10.6 mg/dL
Blood glucose level, 300 min post sucrose load ([3]; 100 mg/kg): 310.8 ± 2.6 mg/dL
Blood glucose level, 1440 min post sucrose load ([3]; 100 mg/kg): 392.8 ± 9.9 mg/dL
% Antihyperglycemic activity 0-300 min ([3]; 100 mg/kg, listed as metformin): 23.7%
% Antihyperglycemic activity 0-1440 min ([3]; 100 mg/kg, listed as metformin): 23.1%
% Antihyperglycemic activity STZ-S 0-5 hr [3]: 25.8%
% Antihyperglycemic activity STZ-S 0-24 hr [3]: 33.2%

CCN(CC)CCO/N=C(\C)C1=CC[C@H]2[C@@H]3CC=C4C[C@@H](O)CC[C@]4(C)[C@H]3CC[C@]12C [Compound 11d, 3β-Hydroxypregna-5,16-dien-20-one-O-(2-diethylamino-ethyl)-oxime]
% Antihyperglycemic activity SLM [1]: 13.1%
melting point: 156 to 160 °C

C/C(=N\OCC(O)CNC(C)(C)C)[C@H]1CC[C@H]2[C@@H]3CC=C4C[C@@H](O)CC[C@]4(C)[C@H]3CC[C@]12C (stereo partly drawn) [Compound 16a, 3β-Hydroxy-pregna-5-en-20-one-O-[2-hydroxy-3-tert.-butylamino-propyl]-oxime]
% Antihyperglycemic activity SLM [1]: 37.7%
melting point: > 200 °C

COc1ccccc1N1CCN(CC(O)CO/N=C(/C)C2CCC3C4CC=C5CC(O)CCC5(C)C4CCC23C)CC1 (stereo not drawn) [Compound 16d, 3β-Hydroxy-pregna-5-en-20-one-O-{2-hydroxy-3-[4-(2-methoxyphenyl)-Piperzin-1-yl]-propyl}-oxime]
% Antihyperglycemic activity SLM [1]: 13.9%
melting point: 145 to 149 °C

C/C(=N/OCc1ccccc1)C1=CC[C@H]2[C@@H]3CC=C4C[C@@H](O)CC[C@]4(C)[C@H]3CC[C@]12C [Compound 10b, 3β-Hydroxy-pregna-5,16-dien-20-one-O-benzyl-oxime]
antidyslipidemic / antidiabetic activity, summary in words [2]: mainly antidyslipidemic activity

C/C(=N\OCCN1CCCCC1)C1=CC[C@H]2[C@@H]3CC=C4C[C@@H](O)CC[C@]4(C)[C@H]3CC[C@]12C [Compound 11a, 3β-Hydroxy-pregna-5,16-dien-20-one-O-(2-piperidinyl-ethyl)-oxime]
% Antihyperglycemic activity SLM [1]: 27.15%
melting point: 135 to 138 °C
